# Results reported in paper PMC6273912, “Novel 5-Substituted 2-(Aylmethylthio)-4-chloro-N-(5-aryl-1,2,4-triazin-3-yl)benzenesulfonamides: Synthesis, Molecular Structure, Anticancer Activity, Apoptosis-Inducing Activity and Metabolic Stability” (Molecules, 2016).
# Experiments:
# [1] = test system: HCT-116 (colon cancer); assay: MTT cell viability assay, HCT-116; type: cell-based, human; settings: 72 h of incubation, mean ± SD
# Experimental: (§1) All chemicals, if not stated otherwise, were obtained from Sigma-Aldrich (St. Louis, MO, USA). The MCF-7 cell line was purchased from Cell Lines Services (Eppelheim, Germany), the HeLa and HCT-116 cell lines were obtained from the Department of Microbiology, Tumor and Cell Biology, Karolinska Institute (Stockholm, Sweden). Cells were cultured in Dulbecco’s modified Eagle’s medium (DMEM) supplemented with 10% fetal bovine serum, 2 mM glutamine, 100 units/mL penicillin, and 100 μg/mL streptomycin. Cultures were maintained in a humidified atmosphere with 5% CO2 at 37 °C in an incubator (HeraCell, Heraeus, Langenselbold, Germany).
# (§2) Cell viability was determined using the MTT (3-(4,5-dimethylthiazol-2-yl)-2,5-diphenyl-tetrazoliumbromide) assay. Stock solutions of the studied compounds were prepared in 100% DMSO. […] Cells were seeded in 96-well plates at a density of 5 × 10^3 cells/well and treated for 72 h with the examined compounds in the concentration range 1–100 μM (1, 10, 25, 50 and 100 μM). Following treatment, MTT (0.5 mg/mL) was added to the medium and cells were further incubated for 2 h at 37 °C. Cells were lysed with DMSO and the absorbance of the formazan solution was measured at 550 nm with a plate reader (1420 multilabel counter, Victor, Jügesheim, Germany). […] The experiment was performed in triplicate. Values are expressed as the mean ± SD of at least three independent experiments.
# [2] = test system: HeLa (cervical cancer); assay: MTT cell viability assay, HeLa; type: cell-based, human; settings: 72 h of incubation, mean ± SD
# Experimental: as §1, §2
# [3] = test system: HCT-116, HeLa and MCF-7; assay: MTT cell viability assay, all tested cell lines together; type: cell-based; settings: Homo sapiens; average over HCT-116, HeLa and MCF-7; read-out: average IC50 against all tested cell lines
# Experimental: as §1, §2
# [4] = test system: active caspases (caspases 1 through 9) in HeLa cells; assay: Caspase activity (FAM-VAD-FMK, flow cytometry), HeLa; type: cell-based, human; settings: 100 μM, increase over control
# Experimental: Caspase activation plays a central role in the execution of apoptosis and is required for the occurrence of its biochemical and morphological hallmarks, such as DNA fragmentation, formation of apoptotic bodies and chromatin condensation. The ability of the examined compounds to induce caspase activity was determined with the use of a fluorescent labeled caspase inhibitor, a carboxyfluorescein (FAM) derivative of valylalanylaspartic acid (VAD) fluoromethyl ketone (FMK).
# FAM-VAD-FMK contains a target sequence recognized by active caspases (caspases 1 through 9). Binding to this sequence inhibits the enzymatic activity of caspases and allows for the determination of their activity through the direct measurement of fluorescent intensity of the bound inhibitor. […] The strongest influence on caspase activation was noticed for the HeLa cell line, where that cell population increased by 31% in the presence of 37 at a concentration of 100 μM.
# Caspase activity was determined with the FLICA Apoptosis Detection Kit (Immunochemistry Technologies, Bloomington, MN, USA) according to the manufacturer’s instructions. […] The fluorescence intensity of fluorescein was determined with flow cytometry (BD FACSCalibur) and caspase activity was determined as the amount of fluorescence emitted from caspase inhibitors bound to the caspases.
# [5] = test system: HCT-116; assay: Cell morphology (light microscope), HCT-116; type: cell-based, human; settings: HCT-116, 25–100 μM, 24 h
# Experimental: To evaluate the changes in morphology of the treated cells, they were incubated with increasing concentrations of 37 (HCT-116, HeLa) or 46 (MCF-7) for 24 h and observed using light microscope.
# The HCT-116, HeLa and MCF-7cells were seeded on 24-well plates (5 × 10^4/per well) in 300 μL of medium and incubated with 37 (HCT-116, HeLa) or 46 (MCF-7) for 24 h. Cells incubated with increasing concentrations of compounds (25–100 μM) were observed after 24 h using light microscope Axiovert 200 (Zeiss, Oberkochen, Germany).
# [6] = Metabolic stability with human liver microsomes and NADPH; type: in vitro ADME; settings: liver microsomes, pH 7.4, human liver microsomes 0.5 mg/mL, 1 mM NADPH, 10 μM compound, pH 7.4, 37 °C, up to 60 min, read-out: In Vitro Metabolic Half-Life t1/2
# Experimental: Stock solutions of studied compounds were prepared at concentration of 10 mM in DMSO. […] Incubation mixture contained 10 μM of a studied derivative, 1 mM of NADPH (Sigma-Aldrich) and 0.5 mg/mL of human liver microsomes (HLM, Sigma-Aldrich) in potassium phosphate buffer (0.1 M, pH 7.4). Incubation was carried out in thermostat at 37 °C and started by addition of studied compound. 50 μL samples were taken after 5, 15, 30, 45 and 60 min. Enzymatic reaction was terminated by the addition of the equal volume of ice-cold acetonitrile containing 10 μM of alprazolam (Sigma-Aldrich) serving as internal standard (IS). Control incubations were performed without NADPH to assess chemical instability. After collection, samples were immediately centrifuged (10 min, 10,000 rpm) and resulted supernatant was directly analyzed or kept in −80 °C until LC-MS analysis. Natural logarithm of a compound over IS peak area ratio was plotted versus incubation time. Metabolic half-time (t1/2) was calculated from the slope of the linear regression, as reported in [48].
# LC-MS analysis was performed on an Agilent 1260 system coupled to SingleQuad 6120 mass spectrometer (Agilent Technologies, Santa Clara, CA, USA). Ascentis Express ES-CN (2.1 mm × 100 mm, 2.7 μm, Supelco Analytical, Bellefonte, PA, USA) was used in reversed-phase mode with gradient elution starting with 50% of phase A (10 mM ammonium formate in water) and 50% of phase B (10 mM ammonium formate in acetonitrile-water mixture, 95:5 v/v). […] Total analysis time was 10 min at 25 °C, flow rate was 0.4 mL/min and the injection volume was 20 μL. The mass spectrometer was equipped with electrospray ion source and operated in positive ionization. Mass analyzer was set individually to each compound to detect [M + H]^+ pseudomolecular ions. MSD parameters of the ESI source were as follows: nebulizer pressure 50 psig (N2), drying gas […] (N2), drying gas temperature 300 °C, capillary voltage 3.5 kV, fragmentor voltage 100 V.
compound,measurement,setting,value
"Cc1cc(S(=O)(=O)Nc2nncc(-c3ccc(C(F)(F)F)cc3)n2)c(SCc2cccc3ccccc23)cc1Cl [Compound 37, 4-Chloro-5-methyl-2-[(naphthalene-1-yl)methylthio]-N-[5-(4-trifluoromethylphenyl)-1,2,4-triazin-3-yl]-benzenesulfonamide]",IC50,[1],36 ± 1 µM
same,IC50,"[1]; Homo sapiens, HCT-116, 72 h",36 to 38 µM
same,IC50,[2],34 ± 2 µM
same,IC50,"[2]; Homo sapiens, 72 h",34 to 42 µM
same,IC50,[3],47 µM
same,increase of cell population with activated caspases,[4],31%
same,morphological changes,[5],"shrinkage of the cells, detachment from the surface"
same,half-life at 10 μM,[6],32.8 min
